# Where two headings read alike, the source gives them in different places.
# Tests used:
# [1] = biological target: T1, ShHTL7 (Striga hermonthica Hyposensitive to Light) (Striga hermonthica, UniProt A0A0M3PNA2); experiment: competitive YLG (Yoshimulactone Green) hydrolysis assay with purified protein; type: biochemical
# T1 sequence (A0A0M3PNA2 1-271): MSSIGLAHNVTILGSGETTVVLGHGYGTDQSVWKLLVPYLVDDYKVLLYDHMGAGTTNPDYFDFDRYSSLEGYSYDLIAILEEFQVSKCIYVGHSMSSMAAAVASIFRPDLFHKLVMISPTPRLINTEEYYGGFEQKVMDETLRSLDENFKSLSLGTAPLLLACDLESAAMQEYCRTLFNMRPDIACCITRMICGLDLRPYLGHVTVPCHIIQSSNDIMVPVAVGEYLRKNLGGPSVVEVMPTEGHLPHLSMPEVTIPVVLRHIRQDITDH
# OsD14 = biological target: T2, OsD14 (Oryza sativa, UniProt Q10QA5); experiment: as above; type: biochemical
# T2 construct: gene D14
# T2 sequence (Q10QA5 1-318): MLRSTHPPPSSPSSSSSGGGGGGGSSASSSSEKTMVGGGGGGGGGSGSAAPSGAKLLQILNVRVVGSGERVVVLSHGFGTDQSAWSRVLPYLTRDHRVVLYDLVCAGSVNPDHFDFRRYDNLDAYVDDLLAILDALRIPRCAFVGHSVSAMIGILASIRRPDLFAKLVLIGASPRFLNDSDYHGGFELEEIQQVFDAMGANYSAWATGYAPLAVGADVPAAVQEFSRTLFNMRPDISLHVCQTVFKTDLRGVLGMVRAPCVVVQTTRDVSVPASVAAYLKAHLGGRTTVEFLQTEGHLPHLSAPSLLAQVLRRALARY
compound,measurement,setting,value
"CC1=CC(O/C=C(\C(=O)N(C)C)c2ccccc2)OC1=O (stereo not drawn) [MP16, (Z)-N,N-Dimethyl-3-((4-methyl-5-oxo-2,5-dihydrofuran-2-yl)oxy)-2-phenylacrylamide]",IC50,[1]; read-out: IC50,4370 ± 210 nM
"CC1=C[C@H](O/C=C2/C(=O)O[C@@H]3c4ccccc4C[C@H]23)OC1=O (racemic) [GR24, rac-GR24]",IC50,[1],980 ± 260 nM
same,IC50,OsD14,1040 ± 90 nM

# — article PMC7179673, “A New Series of Carlactonoic Acid Based Strigolactone Analogs for Fundamental and Applied Research” (Frontiers in Plant Science, 2020)
